In patent US6566327B1, “Histogranin peptides and their analgesic use” (University of Ottawa, priority 1997, dated 2003):
Marks after values point to notes of the source that are not given here. Square brackets hold non-standard residues; d marks the D form. Peptide text beside a SMILES is read from it.

Tests used:
[1] = Solubility noted in the compound description; assay type: physicochemical; conditions: water and DMSO
Male Swiss Webster mice = test: Mouse acetic acid-induced writhing test (i.c.v. peptides); assay type: in vivo; conditions: for Potency ratio (95% CL): as compared with HN; for ED50 (nmol/mouse) (95% CL): method #1, percent of mice showing analgesia; for ED50 (nmol/mouse) (95% CL) / AD50 (nmol/mouse) (95% CL): acetic acid i.p. 5 min after peptide, 95% CL in brackets; for AD50 (nmol/mouse) (95% CL): method #2, percent analgesia
Procedure: Mice (male 20-25 g, Swiss Webster) were obtained from Charles River (Canadian Breeding Farm, St. Constant, Quebec). They were housed five per cage in a room with controlled temperature (22±2° C.), humidity and artificial light (06.30-19 h). […] The experiments were authorized by the animal care committee of the University of Ottawa in accordance […] guidelines of the Canadian Council on Animal Care. The i.c.v. administrations of the peptides were performed as described by Shukla et al. (Shukla et al., Brain Res. 591, 176, 1992 the disclosure of which is incorporated by reference). Peptides were dissolved in double-distilled sterile water (vehicle) and 10 μl of the peptide solution or vehicle was delivered gradually within approximately 3 sec. […] The administration site was confirmed by injecting Indian ink in preliminary experiments. Mouse Writhing Test: Antinociceptive activity of the peptides was evaluated using the acetic acid-induced writhing test according to a modification (Shukla et al. Brain Research 591, 176, 1992 the disclosure of which is incorporated by reference) of the method of Hayashi and Takemori (Eur.J. Pharmacol. 16 63, 1971 the disclosure of which is incorporated by reference). […] An abdominal stretch is characterized by the contraction of the abdominal muscles, the arching of the back vent-ally such that the abdomen touches the bedding surface and the extension of one or both hind limbs. Mice were used once and then killed immediately. Groups of 10 mice were used for each dose. […] Biochem. Psycholpharmacol. 8:191, 1974, the disclosure of which is incorporated by reference). […] Pharmacol. Exp. Ther. 96 99, 1949, the disclosure of which is incorporated by reference) using procedure 47 of the computer program of Tallarida and Murray (in “Manual of pharmacological calculations with computer programs”, 2nd ed., Springer, New York, 1987, the disclosure of which is incorporated by reference). In the second case (method #2), the percentage of analgesia is calculated for each dose by the formula: [(mean number of writhes in control group-mean number of writhes for the test group)/(mean number of writhes in control group)×100]. […] Pharmacol. Exp. Ther 96, 99, 1949 the disclosure in which is incorporated by reference) using procedure 47 of the computer program of Tallarida and Murray (in “Manual of pharmacological calculations with computer programs”. 2nd ed., Springer, New York, 1987, the disclosure in which is incorporated by reference).

Compound	Solubility [1]	Potency ratio (95% CL) (Male Swiss Webster mice; method #1 (ED50))	Potency ratio (95% CL) (Male Swiss Webster mice; method #2 (AD50))	ED50 (nmol/mouse) (95% CL) (Male Swiss Webster mice)	AD50 (nmol/mouse) (95% CL) (Male Swiss Webster mice)
C[C@H](NC(=O)[C@H](CCC(N)=O)NC(=O)CN)C(=O)N[C@@H](CCCNC(=N)N)C(=O)O [Peptide 3, H-Gly-Gln-Ala-Arg-OH] (H-GQAR-OH)	–	5.7 (2.0-15.9)	6.92 (0.84-56.2)*	3.9 (1.7-9.1) nmol/mouse	3.41 (0.8-14.6) nmol/mouse
N=C(N)NCCC[C@H]1NC(=O)[C@H](Cc2ccc(O)cc2)NC(=O)[C@@H](CCC(N)=O)NC(=O)CNC1=O [Peptide 9, cyclic(-Gly-D-Gln-Tyr-D-Arg-)] (cyclo(G[dQ]Y[dR]))	–	–	10.6 (3.6-31.0)*	–	2.23 (1.45-3.43) nmol/mouse
H-RQGRTLYGF-OH [Peptide 13]	–	3.0 (0.8-11.2)	2.43 (0.2-18)	7.5 (2.3 -24.4) nmol/mouse	9.7 (2.5-37.4) nmol/mouse
N=C(N)NCCC[C@H]1NC(=O)[C@H](Cc2ccc(O)cc2)NC(=O)[C@H](CCC(N)=O)NC(=O)CNC1=O [Peptide 8, cyclic(-Gly-Gln-Tyr-D-Arg-)] (cyclo(GQY[dR]))	–	–	5.35 (1.04-26.4)*	–	4.41 (1.7-11.9) nmol/mouse
N=C(N)NCCC[C@@H]1NC(=O)[C@H](Cc2ccc(O)cc2)NC(=O)[C@H](CCC(N)=O)NC(=O)CNC1=O [Peptide 7, cyclic(-Gly-Gln-Tyr-Arg-)] (cyclo(GQYR))	–	–	5.6 (1.25-25)*	–	4.21 (1.80-9.87) nmol/mouse
C[C@@H]1NC(=O)[C@H](CCC(N)=O)NC(=O)[C@H](CCCNC(=N)N)NC(=O)[C@H](CCCNC(=N)N)NC(=O)[C@H](C)NC(=O)[C@H](CCC(N)=O)NC(=O)[C@H](CCCNC(=N)N)NC(=O)[C@H](CCCNC(=N)N)NC1=O [Peptide 6B] (cyclo(ARRQARRQ))	Soluble in water and DMSO	–	–	–	–

Second part, led by results:

Solubility [1]	Compound	Potency ratio (95% CL) (Male Swiss Webster mice; method #1 (ED50))	Potency ratio (95% CL) (Male Swiss Webster mice; method #2 (AD50))	ED50 (nmol/mouse) (95% CL) (Male Swiss Webster mice)	AD50 (nmol/mouse) (95% CL) (Male Swiss Webster mice)
Soluble in water and DMSO	NC(=O)CC[C@H]1NC(=O)CNC(=O)[C@@H](CCCN=C(N)N)NC(=O)[C@H](Cc2ccc(O)cc2)NC1=O [Peptide 9, cyclic(-Gly-D-Gln-Tyr-D-Arg-)] (cyclo(G[dQ]Y[dR]))	–	–	–	–
Soluble in water and DMSO	C[C@@H]1NC(=O)[C@H](CCC(N)=O)NC(=O)CNC(=O)[C@H](CCCNC(=N)N)NC(=O)[C@H](C)NC(=O)[C@H](CCC(N)=O)NC(=O)CNC(=O)[C@H](CCCNC(=N)N)NC1=O [Peptide 5B] (cyclo(ARGQARGQ))	–	0.93 (0.22-3.9)	–	25.3 (11.6-55.1) nmol/mouse
Soluble in water and DMSO	NC(=O)CC[C@@H]1NC(=O)CNC(=O)[C@H](CCCN=C(N)N)NC(=O)[C@H](Cc2ccc(O)cc2)NC1=O [Peptide 7, cyclic(-Gly-Gln-Tyr-Arg-)] (cyclo(GQYR))	–	–	–	–
Soluble in water and DMSO	C[C@H](NC(=O)[C@H](CCC(N)=O)NC(=O)CN)C(=O)N[C@@H](CCCN=C(N)N)C(=O)O [Peptide 3, H-Gly-Gln-Ala-Arg-OH] (H-GQAR-OH)	–	–	–	–
Soluble in water and DMSO	C[C@@H]1NC(=O)[C@H](CCC(N)=O)NC(=O)CNC(=O)[C@H](CCCNC(=N)N)NC1=O [Peptide 5, cyclic(-Gly-Gln-Ala-Arg-)] (cyclo(ARGQ))	7.7 (1.3-46.6)	1.77 (0.11-28.1)	2.9 (0.8 -9.8) nmol/mouse	13.3 (1.6-114) nmol/mouse
soluble in water and DMSO	N=C(N)NCCC[C@H](NC(=O)CNC(=O)[C@H](CCC(N)=O)NC(=O)[C@@H](N)CCCNC(=N)N)C(=O)O [Peptide 1, H-Arg-Gln-Gly-Arg-OH] (H-RQGR-OH)	–	1.84 (0.3-12.5)	–	12.8 (3.6-46.1) nmol/mouse
Soluble in water and DMSO	C[C@@H]1NC(=O)[C@H](CCC(N)=O)NC(=O)[C@H](CCCNC(=N)N)NC(=O)[C@H](CCCNC(=N)N)NC1=O [Peptide 6, cyclic(-Arg-Gln-Ala-Arg-)]	–	0.94 (0.22-3.98)	–	25.1 (11.3-55.6) nmol/mouse
Soluble in water and DMSO	N=C(N)NCCC[C@H](NC(=O)CNC(=O)[C@H](CCC(N)=O)NC(=O)CN)C(=O)O [Peptide 2, H-Gly-Gln-Gly-Arg-OH] (H-GQGR-OH)	2.0 (0.6-6.3)	0.91 (0.11-7.63)	11.3 (4.2-30.4) nmol/mouse	25.9 (5.9-113) nmol/mouse
Soluble in water and DMSO	C[C@H](NC(=O)[C@H](CCC(N)=O)NC(=O)[C@@H](N)CCCNC(=N)N)C(=O)N[C@@H](CCCNC(=N)N)C(=O)O [Peptide 4, H-Arg-Gln-Ala-Arg-OH]	4.5 (1.4-14.3)	1.86 (0.27-12.8)	4.9 (1.8-13.2) nmol/mouse	12.7 (3.5-46.1) nmol/mouse
